Results as given in PubChem BioAssay (NCI).
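Grown in 96-well plates, cells were treated for 48 hours with each compound at five concentrations. Insufficient inhibition: endpoint recorded as highest concentration tested. TGI is the concentration that stops growth completely.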

What was measured:
Assay in all cases: DTP human tumour cell line panel, 48 h
NCI-H226 lung = tested on: NCI-H226 lung
SK-OV-3 ovarian = tested on: SK-OV-3 ovarian
SF-539 CNS = tested on: SF-539 CNS
NCI-H522 lung = tested on: NCI-H522 lung
786-0 renal = tested on: 786-0 renal
MDA-MB-435 = tested on: MDA-MB-435
SK-MEL-28 melanoma = tested on: SK-MEL-28 melanoma
HS 578T breast = tested on: HS 578T breast
UACC-257 melanoma = tested on: UACC-257 melanoma
MCF7 breast = tested on: MCF7 breast
HOP-62 NSCLC = tested on: HOP-62 NSCLC
MOLT-4 leukemia = tested on: MOLT-4 leukemia
BT-549 breast = tested on: BT-549 breast
HOP-92 NSCLC = tested on: HOP-92 NSCLC
T-47D breast = tested on: T-47D breast
U251 CNS = tested on: U251 CNS
UO-31 renal = tested on: UO-31 renal
HL-60(TB) leukemia = tested on: HL-60(TB) leukemia
UACC-62 melanoma = tested on: UACC-62 melanoma
SK-MEL-5 melanoma = tested on: SK-MEL-5 melanoma
A549 NSCLC = tested on: A549 NSCLC
NCI/ADR-RES ovarian = tested on: NCI/ADR-RES ovarian
HCT-116 colon = tested on: HCT-116 colon
K-562 leukemia = tested on: K-562 leukemia
NCI-H460 lung = tested on: NCI-H460 lung
NCI-H23 lung = tested on: NCI-H23 lung
RPMI-8226 leukemia = tested on: RPMI-8226 leukemia
ACHN renal = tested on: ACHN renal
SW-620 colon = tested on: SW-620 colon
OVCAR-3 ovarian = tested on: OVCAR-3 ovarian
HCC-2998 colon = tested on: HCC-2998 colon
SK-MEL-2 melanoma = tested on: SK-MEL-2 melanoma
CAKI-1 renal = tested on: CAKI-1 renal
PC-3 prostate = tested on: PC-3 prostate
TK-10 renal = tested on: TK-10 renal
OVCAR-4 ovarian = tested on: OVCAR-4 ovarian
EKVX NSCLC = tested on: EKVX NSCLC
HT29 colon = tested on: HT29 colon
OVCAR-5 ovarian = tested on: OVCAR-5 ovarian
M14 melanoma = tested on: M14 melanoma
CCRF-CEM leukemia = tested on: CCRF-CEM leukemia
SF-295 CNS = tested on: SF-295 CNS
SF-268 CNS = tested on: SF-268 CNS
MDA-N = tested on: MDA-N
OVCAR-8 ovarian = tested on: OVCAR-8 ovarian
MALME-3M melanoma = tested on: MALME-3M melanoma
RXF 393 renal = tested on: RXF 393 renal
LOX IMVI melanoma = tested on: LOX IMVI melanoma
SNB-19 CNS = tested on: SNB-19 CNS
KM12 colon = tested on: KM12 colon
IGROV1 ovarian = tested on: IGROV1 ovarian
DU-145 prostate = tested on: DU-145 prostate
SNB-75 CNS = tested on: SNB-75 CNS
HCT-15 colon = tested on: HCT-15 colon
MDA-MB-231 breast = tested on: MDA-MB-231 breast
COLO 205 colon = tested on: COLO 205 colon
SN12C renal = tested on: SN12C renal
A498 renal = tested on: A498 renal
SR leukemia = tested on: SR leukemia

Measured: TGI

O=C(Nc1ccccc1)c1cc(S(=O)(=O)Nc2nc3ncccc3[nH]2)c(SSc2cc(Cl)c(C(=O)Nc3ccccc3)cc2S(=O)(=O)Nc2nc3ncccc3[nH]2)cc1Cl
not listed: SR leukemia
> 100 µM: all other assays above

O=C(/C=C(\N=P(c1ccccc1)(c1ccccc1)c1ccccc1)C(F)(F)C(F)(F)C(F)(F)C(F)(F)C(F)(F)C(F)(F)C(F)(F)F)c1ccccc1
not listed: NCI-H226 lung | NCI-H522 lung | EKVX NSCLC | OVCAR-8 ovarian | MDA-MB-231 breast | A498 renal
> 100 µM: all other assays above
